Assay results from paper PMC7313537 (PLoS ONE, 2020).

Experiments:
Test in all cases: Broader kinase panel (PerkinElmer)
Type in all cases: biochemical
Yes = biological target: T1, Yes (Homo sapiens, UniProt P07947); conditions: 100 nM; read-out: Average Percent Inhibition
T1 construct: purchased In-house HTRF panel (56 kinases) and PerkinElmer (161-kinase panel)
Text: (§1) […]. […] […].

PIM3 = biological target: T2, PIM3 (Homo sapiens, UniProt Q86V86); conditions: 100 nM; read-out: Average Percent Inhibition
T2 construct: purchased In-house HTRF panel (56 kinases) and PerkinElmer (161-kinase panel)
Text: as §1

MELK = biological target: T3, MELK (Homo sapiens, UniProt Q14680); conditions: 100 nM; read-out: Average Percent Inhibition
T3 construct: purchased In-house HTRF panel (56 kinases) and PerkinElmer (161-kinase panel)
T3 sequence (Q14680 whole entry): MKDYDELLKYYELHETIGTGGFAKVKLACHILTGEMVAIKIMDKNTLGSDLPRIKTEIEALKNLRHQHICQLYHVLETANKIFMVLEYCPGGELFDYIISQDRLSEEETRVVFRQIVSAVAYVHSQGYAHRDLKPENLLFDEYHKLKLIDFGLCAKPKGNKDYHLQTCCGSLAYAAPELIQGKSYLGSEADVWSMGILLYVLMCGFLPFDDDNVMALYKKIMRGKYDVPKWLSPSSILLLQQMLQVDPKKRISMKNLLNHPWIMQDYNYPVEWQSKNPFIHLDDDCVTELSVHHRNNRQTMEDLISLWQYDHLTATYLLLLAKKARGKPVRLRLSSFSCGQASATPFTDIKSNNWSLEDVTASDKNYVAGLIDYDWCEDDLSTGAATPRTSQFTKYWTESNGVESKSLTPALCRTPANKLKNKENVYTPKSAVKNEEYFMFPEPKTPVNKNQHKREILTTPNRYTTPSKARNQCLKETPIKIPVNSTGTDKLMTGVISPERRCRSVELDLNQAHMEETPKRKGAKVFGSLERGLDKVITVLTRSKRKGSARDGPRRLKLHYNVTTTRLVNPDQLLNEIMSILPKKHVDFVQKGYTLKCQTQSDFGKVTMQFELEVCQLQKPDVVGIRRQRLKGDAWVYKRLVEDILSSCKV
Text: as §1

FMS = biological target: T4, FMS (Homo sapiens, UniProt P07333); conditions: 100 nM; read-out: Average Percent Inhibition
T4 construct: purchased In-house HTRF panel (56 kinases) and PerkinElmer (161-kinase panel)
T4 sequence (P07333 20-972): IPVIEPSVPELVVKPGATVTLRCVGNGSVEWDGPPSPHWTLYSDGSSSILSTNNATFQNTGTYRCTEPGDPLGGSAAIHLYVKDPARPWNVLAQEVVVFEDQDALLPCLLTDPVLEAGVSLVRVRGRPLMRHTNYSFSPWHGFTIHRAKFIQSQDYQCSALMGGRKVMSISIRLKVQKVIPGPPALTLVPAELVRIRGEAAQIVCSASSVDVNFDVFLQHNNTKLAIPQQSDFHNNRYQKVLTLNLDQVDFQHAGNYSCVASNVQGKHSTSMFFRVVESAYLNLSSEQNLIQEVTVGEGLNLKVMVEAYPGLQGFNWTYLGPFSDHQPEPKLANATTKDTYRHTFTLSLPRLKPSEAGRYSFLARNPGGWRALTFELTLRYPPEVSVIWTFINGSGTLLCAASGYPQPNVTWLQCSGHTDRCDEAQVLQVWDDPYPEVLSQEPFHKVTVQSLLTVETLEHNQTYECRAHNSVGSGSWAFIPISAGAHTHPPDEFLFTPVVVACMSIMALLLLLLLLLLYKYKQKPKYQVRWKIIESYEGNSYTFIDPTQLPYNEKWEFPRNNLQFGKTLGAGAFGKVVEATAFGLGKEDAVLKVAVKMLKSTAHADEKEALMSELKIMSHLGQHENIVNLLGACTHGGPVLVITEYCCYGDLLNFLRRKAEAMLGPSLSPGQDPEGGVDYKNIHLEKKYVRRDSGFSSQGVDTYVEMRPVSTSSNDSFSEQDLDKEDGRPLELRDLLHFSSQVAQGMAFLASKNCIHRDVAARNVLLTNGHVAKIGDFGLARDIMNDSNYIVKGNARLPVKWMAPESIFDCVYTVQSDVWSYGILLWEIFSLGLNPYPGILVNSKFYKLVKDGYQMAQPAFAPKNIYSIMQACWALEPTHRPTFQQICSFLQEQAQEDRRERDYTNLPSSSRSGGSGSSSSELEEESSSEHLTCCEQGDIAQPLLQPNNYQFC
Text: as §1

EGFR = EGFR (Homo sapiens, UniProt P00533); conditions: 100 nM; read-out: Average Percent Inhibition
Text: as §1

FGFR3 = biological target: T5, FGFR3 (Homo sapiens, UniProt P22607); conditions: 100 nM; read-out: Average Percent Inhibition
T5 construct: purchased In-house HTRF panel (56 kinases) and PerkinElmer (161-kinase panel)
Text: as §1

DYRK3 = biological target: T6, DYRK3 (Homo sapiens, UniProt O43781); conditions: 100 nM; read-out: Average Percent Inhibition
T6 construct: purchased In-house HTRF panel (56 kinases) and PerkinElmer (161-kinase panel)
Text: as §1

PRAK = biological target: T7, PRAK (Homo sapiens, UniProt Q8IW41); conditions: 100 nM; read-out: Average Percent Inhibition
T7 construct: purchased In-house HTRF panel (56 kinases) and PerkinElmer (161-kinase panel)
Text: as §1

FLT3 = FLT3 (Homo sapiens, UniProt P36888); conditions: 100 nM; read-out: Average Percent Inhibition
Text: as §1

RSK4 = biological target: T8, RSK4 (Homo sapiens, UniProt Q9UK32); conditions: 100 nM; read-out: Average Percent Inhibition
T8 construct: purchased In-house HTRF panel (56 kinases) and PerkinElmer (161-kinase panel)
Text: as §1

MET = biological target: T9, MET (Homo sapiens, UniProt P08581); conditions: 100 nM; read-out: Average Percent Inhibition
T9 construct: purchased In-house HTRF panel (56 kinases) and PerkinElmer (161-kinase panel)
Text: as §1

PKG1-beta = biological target: T10, PKG1-beta (Homo sapiens, UniProt Q13976); conditions: 100 nM; read-out: Average Percent Inhibition
T10 construct: purchased In-house HTRF panel (56 kinases) and PerkinElmer (161-kinase panel)
Text: as §1

CAMK4 = biological target: T11, CAMK4 (Homo sapiens, UniProt Q16566); conditions: 100 nM; read-out: Average Percent Inhibition
T11 construct: purchased In-house HTRF panel (56 kinases) and PerkinElmer (161-kinase panel)
Text: as §1

MARK1 = biological target: T12, MARK1 (Homo sapiens, UniProt Q9P0L2); conditions: 100 nM; read-out: Average Percent Inhibition
T12 construct: purchased In-house HTRF panel (56 kinases) and PerkinElmer (161-kinase panel)
Text: as §1

SGK3 = SGK3 (Homo sapiens, UniProt Q96BR1); conditions: 100 nM; read-out: Average Percent Inhibition
Text: as §1

AurC = biological target: T13, AurC (Homo sapiens, UniProt Q9UQB9); conditions: 100 nM; read-out: Average Percent Inhibition
T13 construct: purchased In-house HTRF panel (56 kinases) and PerkinElmer (161-kinase panel)
Text: as §1

FLT4 = biological target: T14, FLT4 (Homo sapiens, UniProt P35916); conditions: 100 nM; read-out: Average Percent Inhibition
T14 construct: purchased In-house HTRF panel (56 kinases) and PerkinElmer (161-kinase panel)
Text: as §1

RET Y791F = biological target: T15, RET Y791F (Homo sapiens, UniProt P07949, Y791F); conditions: 100 nM; read-out: Average Percent Inhibition
T15 construct: purchased In-house HTRF panel (56 kinases) and PerkinElmer (161-kinase panel)
Text: as §1

CamK1d = biological target: T16, CamK1d (Homo sapiens, UniProt Q8IU85); conditions: 100 nM; read-out: Average Percent Inhibition
T16 construct: purchased In-house HTRF panel (56 kinases) and PerkinElmer (161-kinase panel)
Text: as §1

PKD3 = biological target: T17, PKD3 (Homo sapiens, UniProt O94806); conditions: 100 nM; read-out: Average Percent Inhibition
T17 construct: purchased In-house HTRF panel (56 kinases) and PerkinElmer (161-kinase panel)
Text: as §1

JAK2 = biological target: T18, JAK2 (Homo sapiens, UniProt O60674); conditions: 100 nM; read-out: Average Percent Inhibition
T18 construct: purchased In-house HTRF panel (56 kinases) and PerkinElmer (161-kinase panel)
Text: as §1

PKC-delta = biological target: T19, PKC-delta (Homo sapiens, UniProt Q05655); conditions: 100 nM; read-out: Average Percent Inhibition
T19 construct: purchased In-house HTRF panel (56 kinases) and PerkinElmer (161-kinase panel)
Text: as §1

AMPK = conditions: 100 nM
Text: as §1

DYRK1a = biological target: T20, DYRK1a (Homo sapiens, UniProt Q13627); conditions: 100 nM; read-out: Average Percent Inhibition
T20 construct: purchased In-house HTRF panel (56 kinases) and PerkinElmer (161-kinase panel)
Text: as §1

CLK2 = biological target: T21, CLK2 (Homo sapiens, UniProt P49760); conditions: 100 nM; read-out: Average Percent Inhibition
T21 construct: purchased In-house HTRF panel (56 kinases) and PerkinElmer (161-kinase panel)
Text: as §1

BRSK2 = biological target: T22, BRSK2 (Homo sapiens, UniProt Q8IWQ3); conditions: 100 nM; read-out: Average Percent Inhibition
T22 construct: purchased In-house HTRF panel (56 kinases) and PerkinElmer (161-kinase panel)
Text: as §1

IRAK4 = biological target: T23, IRAK4 (Homo sapiens, UniProt Q9NWZ3); conditions: 100 nM; read-out: Average Percent Inhibition
T23 construct: purchased In-house HTRF panel (56 kinases) and PerkinElmer (161-kinase panel)
T23 sequence (Q9NWZ3 whole entry): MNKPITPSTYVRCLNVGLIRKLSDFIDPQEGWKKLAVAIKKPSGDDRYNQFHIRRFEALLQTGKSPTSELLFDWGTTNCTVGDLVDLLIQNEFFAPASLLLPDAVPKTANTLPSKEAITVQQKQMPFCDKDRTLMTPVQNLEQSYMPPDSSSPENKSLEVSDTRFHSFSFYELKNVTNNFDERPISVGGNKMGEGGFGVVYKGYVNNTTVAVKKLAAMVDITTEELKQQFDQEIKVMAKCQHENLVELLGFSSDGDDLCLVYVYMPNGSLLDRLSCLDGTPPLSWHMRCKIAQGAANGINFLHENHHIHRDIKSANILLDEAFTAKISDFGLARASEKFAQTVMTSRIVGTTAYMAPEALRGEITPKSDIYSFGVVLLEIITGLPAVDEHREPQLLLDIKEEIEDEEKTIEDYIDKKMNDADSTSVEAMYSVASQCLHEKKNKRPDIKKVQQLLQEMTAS
Text: as §1

PIM2 = biological target: T24, PIM2 (Homo sapiens, UniProt Q9P1W9); conditions: 100 nM; read-out: Average Percent Inhibition
T24 construct: purchased In-house HTRF panel (56 kinases) and PerkinElmer (161-kinase panel)
Text: as §1

EPHA1 = biological target: T25, EPHA1 (Homo sapiens, UniProt P21709); conditions: 100 nM; read-out: Average Percent Inhibition
T25 construct: purchased In-house HTRF panel (56 kinases) and PerkinElmer (161-kinase panel)
T25 sequence (P21709 26-976): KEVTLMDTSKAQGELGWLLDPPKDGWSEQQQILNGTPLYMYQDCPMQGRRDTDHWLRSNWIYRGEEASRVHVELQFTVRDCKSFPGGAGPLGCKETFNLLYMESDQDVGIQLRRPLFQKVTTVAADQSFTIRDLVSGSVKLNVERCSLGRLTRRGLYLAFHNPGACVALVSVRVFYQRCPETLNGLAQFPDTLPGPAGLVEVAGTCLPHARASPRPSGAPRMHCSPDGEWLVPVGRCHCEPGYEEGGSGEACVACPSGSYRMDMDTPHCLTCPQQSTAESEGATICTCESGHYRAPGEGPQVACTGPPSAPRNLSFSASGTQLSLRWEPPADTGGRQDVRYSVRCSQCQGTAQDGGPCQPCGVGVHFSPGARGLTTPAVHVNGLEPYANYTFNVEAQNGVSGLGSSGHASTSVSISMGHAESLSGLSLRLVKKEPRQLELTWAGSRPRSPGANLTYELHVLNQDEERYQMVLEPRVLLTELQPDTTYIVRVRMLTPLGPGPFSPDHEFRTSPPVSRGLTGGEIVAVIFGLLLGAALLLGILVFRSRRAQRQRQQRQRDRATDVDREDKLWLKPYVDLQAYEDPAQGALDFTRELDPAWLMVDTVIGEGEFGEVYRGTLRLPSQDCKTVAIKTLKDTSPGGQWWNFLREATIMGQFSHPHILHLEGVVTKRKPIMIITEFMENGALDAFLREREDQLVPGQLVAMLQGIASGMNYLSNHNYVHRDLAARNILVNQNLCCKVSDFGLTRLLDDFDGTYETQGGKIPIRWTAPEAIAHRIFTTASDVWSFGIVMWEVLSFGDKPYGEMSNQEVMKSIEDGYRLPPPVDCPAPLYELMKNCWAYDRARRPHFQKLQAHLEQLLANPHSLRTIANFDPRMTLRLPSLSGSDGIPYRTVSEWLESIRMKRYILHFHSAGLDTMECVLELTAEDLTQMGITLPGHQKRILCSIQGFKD
Text: as §1

ZIPK (DAPK3) = biological target: T26, ZIPK (DAPK3) (Homo sapiens, UniProt O43293); conditions: 100 nM; read-out: Average Percent Inhibition
T26 construct: purchased In-house HTRF panel (56 kinases) and PerkinElmer (161-kinase panel)
Text: as §1

p70S6K = biological target: T27, p70S6K (Homo sapiens, UniProt P23443); conditions: 100 nM; read-out: Average Percent Inhibition
T27 construct: purchased In-house HTRF panel (56 kinases) and PerkinElmer (161-kinase panel)
Text: as §1

CDK3 = biological target: T28, CDK3 (Homo sapiens, UniProt Q00526); conditions: 100 nM; read-out: Average Percent Inhibition
T28 construct: purchased In-house HTRF panel (56 kinases) and PerkinElmer (161-kinase panel)
Text: as §1

MINK = MINK (Homo sapiens, UniProt Q8N4C8); conditions: 100 nM; read-out: Average Percent Inhibition
Text: as §1

EPHA4 = biological target: T29, EPHA4 (Homo sapiens, UniProt P54764); conditions: 100 nM; read-out: Average Percent Inhibition
T29 construct: purchased In-house HTRF panel (56 kinases) and PerkinElmer (161-kinase panel)
Text: as §1

PAK5 (PAK7) = biological target: T30, PAK5 (PAK7) (Homo sapiens, UniProt Q9P286); conditions: 100 nM; read-out: Average Percent Inhibition
T30 construct: purchased In-house HTRF panel (56 kinases) and PerkinElmer (161-kinase panel)
Text: as §1

ROCK2 = biological target: T31, ROCK2 (Homo sapiens, UniProt O75116); conditions: 100 nM; read-out: Average Percent Inhibition
T31 construct: purchased In-house HTRF panel (56 kinases) and PerkinElmer (161-kinase panel)
T31 sequence (O75116 whole entry): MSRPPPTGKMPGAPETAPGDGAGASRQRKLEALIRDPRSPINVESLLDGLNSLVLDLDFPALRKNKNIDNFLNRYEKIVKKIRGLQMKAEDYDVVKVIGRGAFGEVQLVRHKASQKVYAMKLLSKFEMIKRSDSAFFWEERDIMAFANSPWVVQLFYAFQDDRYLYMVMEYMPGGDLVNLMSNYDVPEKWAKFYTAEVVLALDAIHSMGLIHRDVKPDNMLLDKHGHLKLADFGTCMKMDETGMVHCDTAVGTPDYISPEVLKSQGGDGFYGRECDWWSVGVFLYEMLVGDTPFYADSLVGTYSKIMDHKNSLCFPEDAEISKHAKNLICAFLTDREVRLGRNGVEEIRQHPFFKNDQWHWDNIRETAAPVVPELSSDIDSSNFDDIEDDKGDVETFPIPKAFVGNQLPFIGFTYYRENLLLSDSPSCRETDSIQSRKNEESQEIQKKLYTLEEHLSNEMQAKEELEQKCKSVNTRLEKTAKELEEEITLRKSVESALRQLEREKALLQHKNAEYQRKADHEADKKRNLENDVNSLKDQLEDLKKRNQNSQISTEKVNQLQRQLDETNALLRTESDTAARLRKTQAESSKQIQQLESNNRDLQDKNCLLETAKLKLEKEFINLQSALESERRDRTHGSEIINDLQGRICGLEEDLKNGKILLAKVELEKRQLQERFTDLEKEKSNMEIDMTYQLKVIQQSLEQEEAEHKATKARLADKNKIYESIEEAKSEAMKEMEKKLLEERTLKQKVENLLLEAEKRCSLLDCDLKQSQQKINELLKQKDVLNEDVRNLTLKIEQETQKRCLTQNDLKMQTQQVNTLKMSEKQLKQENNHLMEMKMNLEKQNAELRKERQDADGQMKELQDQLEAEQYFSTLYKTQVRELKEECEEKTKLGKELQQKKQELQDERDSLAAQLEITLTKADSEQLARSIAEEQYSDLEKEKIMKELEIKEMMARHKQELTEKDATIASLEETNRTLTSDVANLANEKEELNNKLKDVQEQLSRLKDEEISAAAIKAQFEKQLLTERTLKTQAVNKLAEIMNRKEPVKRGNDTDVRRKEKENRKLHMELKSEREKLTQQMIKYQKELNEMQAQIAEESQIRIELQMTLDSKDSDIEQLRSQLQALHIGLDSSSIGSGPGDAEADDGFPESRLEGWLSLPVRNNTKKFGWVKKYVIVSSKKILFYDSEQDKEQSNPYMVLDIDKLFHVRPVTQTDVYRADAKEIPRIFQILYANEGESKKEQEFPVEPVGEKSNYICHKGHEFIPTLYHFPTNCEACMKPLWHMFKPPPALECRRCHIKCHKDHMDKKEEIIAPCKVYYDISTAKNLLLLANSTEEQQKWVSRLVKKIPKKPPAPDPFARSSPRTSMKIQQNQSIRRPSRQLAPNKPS
Text: as §1

CHK1 = biological target: T32, CHK1 (Homo sapiens, UniProt O14757); conditions: 100 nM; read-out: Average Percent Inhibition
T32 construct: purchased In-house HTRF panel (56 kinases) and PerkinElmer (161-kinase panel)
T32 sequence (O14757 whole entry): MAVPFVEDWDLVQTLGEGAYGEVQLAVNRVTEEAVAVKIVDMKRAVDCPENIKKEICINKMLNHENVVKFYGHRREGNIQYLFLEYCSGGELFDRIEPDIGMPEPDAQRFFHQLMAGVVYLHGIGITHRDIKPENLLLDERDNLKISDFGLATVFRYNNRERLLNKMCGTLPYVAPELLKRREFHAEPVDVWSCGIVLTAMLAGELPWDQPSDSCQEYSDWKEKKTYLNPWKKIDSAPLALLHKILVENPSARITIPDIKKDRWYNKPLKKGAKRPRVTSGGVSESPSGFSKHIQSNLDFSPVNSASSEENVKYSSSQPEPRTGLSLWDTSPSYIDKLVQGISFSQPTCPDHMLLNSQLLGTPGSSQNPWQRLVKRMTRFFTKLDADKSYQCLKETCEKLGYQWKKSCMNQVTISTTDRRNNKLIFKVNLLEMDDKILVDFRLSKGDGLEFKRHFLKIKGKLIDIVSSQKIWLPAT
Text: as §1

CDK5/p25 = biological target: T33, CDK5/p25 (Homo sapiens, UniProt Q00535); conditions: 100 nM; read-out: Average Percent Inhibition
T33 construct: purchased In-house HTRF panel (56 kinases) and PerkinElmer (161-kinase panel)
Text: as §1

p38alpha/SAPK2a (T106M) = biological target: T34, p38alpha/SAPK2a (T106M) (Homo sapiens, UniProt Q16539, T106M); conditions: 100 nM; read-out: Average Percent Inhibition
T34 construct: purchased In-house HTRF panel (56 kinases) and PerkinElmer (161-kinase panel)
Text: as §1

KDR = KDR (Homo sapiens, UniProt P35968); conditions: 100 nM; read-out: Average Percent Inhibition
Text: as §1

Fer = biological target: T35, Fer (Homo sapiens, UniProt P16591); conditions: 100 nM; read-out: Average Percent Inhibition
T35 construct: purchased In-house HTRF panel (56 kinases) and PerkinElmer (161-kinase panel)
Text: as §1

EPHB3 = biological target: T36, EPHB3 (Homo sapiens, UniProt P54753); conditions: 100 nM; read-out: Average Percent Inhibition
T36 construct: purchased In-house HTRF panel (56 kinases) and PerkinElmer (161-kinase panel)
Text: as §1

PKGa = biological target: T37, PKGa (Homo sapiens, UniProt Q13976); conditions: 100 nM; read-out: Average Percent Inhibition
T37 construct: purchased In-house HTRF panel (56 kinases) and PerkinElmer (161-kinase panel)
Text: as §1

## CCN1C(=O)N(c2c(F)c(OC)cc(OC)c2F)Cc2cnc3[nH]c(CN4CCOCC4)cc3c21 [INCB054828, pemigatinib]
Yes
  inhibition at 0.1 µM: 3%
PIM3
  inhibition at 0.1 µM: -4%
MELK
  inhibition at 0.1 µM: 2%
FMS
  inhibition at 0.1 µM: -10%
EGFR
  inhibition at 0.1 µM: 23%
FGFR3
  inhibition at 0.1 µM: 98%
DYRK3
  inhibition at 0.1 µM: 0%
PRAK
  inhibition at 0.1 µM: -2%
FLT3
  inhibition at 0.1 µM: 0%
RSK4
  inhibition at 0.1 µM: -1%
MET
  inhibition at 0.1 µM: -2%
PKG1-beta
  inhibition at 0.1 µM: -2%
CAMK4
  inhibition at 0.1 µM: -1%
MARK1
  inhibition at 0.1 µM: 10%
SGK3
  inhibition at 0.1 µM: 13%
AurC
  inhibition at 0.1 µM: -4%
FLT4
  inhibition at 0.1 µM: 38%
RET Y791F
  inhibition at 0.1 µM: 6%
CamK1d
  inhibition at 0.1 µM: 14%
PKD3
  inhibition at 0.1 µM: 0%
JAK2
  inhibition at 0.1 µM: 8%
PKC-delta
  inhibition at 0.1 µM: 9%
AMPK
  Average Percent Inhibition: 4%
DYRK1a
  inhibition at 0.1 µM: -2%
CLK2
  inhibition at 0.1 µM: -3%
BRSK2
  inhibition at 0.1 µM: -2%
IRAK4
  inhibition at 0.1 µM: 0%
PIM2
  inhibition at 0.1 µM: -5%
EPHA1
  inhibition at 0.1 µM: 2%
ZIPK (DAPK3)
  inhibition at 0.1 µM: 7%
p70S6K
  inhibition at 0.1 µM: 8%
CDK3
  inhibition at 0.1 µM: 11%
MINK
  inhibition at 0.1 µM: 2%
EPHA4
  inhibition at 0.1 µM: 3%
PAK5 (PAK7)
  inhibition at 0.1 µM: 6%
ROCK2
  inhibition at 0.1 µM: 5%
CHK1
  inhibition at 0.1 µM: 0%
CDK5/p25
  inhibition at 0.1 µM: -4%
p38alpha/SAPK2a (T106M)
  inhibition at 0.1 µM: -3%
KDR
  inhibition at 0.1 µM: 45%
Fer
  inhibition at 0.1 µM: 17%
EPHB3
  inhibition at 0.1 µM: 0%
PKGa
  inhibition at 0.1 µM: 1%
